Experimental data reported in US8653046B2, “Controlling transgene expression across the skin” (ETH Zurich, priority 2009, dated 2014).

Assays:
[1] = Stability (half-live) of phloretin in culture medium, quantified via CHO-PEACE8 SEAP calibration curve; format: physicochemical
TtgA1 (TtgR-VP16) [2] = target: T1, TtgA1 (TtgR-VP16) (Pseudomonas putida, UniProt Q9AIU0); assay: Autoregulated PEACE-controlled SEAP expression (pMG13) in CHO-K1; format: cell-based; set-up: expressed in transfected cells; host or cells: CHO-K1 (transient pMG11 or pMG13); also HEK-293, BHK-21, COS-7, HaCaT, HT-1080, NIH/3T3, primary human fibroblasts and keratinocytes; details: 50 μM phloretin, 48 h
TtgA1 (TtgR-VP16) [3] = target: T1, TtgA1 (TtgR-VP16); assay: Compatibility test: phloretin-responsive SEAP production of CHO-PEACE8; format: cell-based, Pseudomonas putida DOT-T1E; set-up: expressed in transfected cells; host or cells: CHO-K1 (transient pMG11 or pMG13); also HEK-293, BHK-21, COS-7, HaCaT, HT-1080, NIH/3T3, primary human fibroblasts and keratinocytes; details: Phl 50 μM, 48 h, 100 = no inducer
Description: To evaluate the functional compatibility of PEACE with the established tetracycline— [TETOFF; Gossen M., Bujard H., 1992, Proc Natl Acad Sci USA 89(12):5547-5551] and macrolide— [EOFF; Weber W., et al., 2002, Nat Biotechnol 20(9):901-907] responsive expression circuits CHO-PEACE8 is transiently transfected, transgenic for phloretin-responsive SEAP expression, with either the TETOFF-(pSAM200, PSV40-tTA-pA; pBP99, PhCMV*-1-SAMY-pA) or the EOFF-(PWW35, PSV40-ET1-pA; pBP100, PETR3-SAMY-pA) system set to control the Bacillus stearothermophilus-derived secreted α-amylase (SAMY) in response to tetracycline and erythromycin, respectively. SEAP and SAMY expression are scored 48 h after cultivation of the transfected populations in the presence (50 μM; 2 μg/mL) or absence of the inducer molecules (phloretin, tetracycline, erythromycin).
The stable CHO-PEACE8 cell line, transgenic for phloretin-controlled SEAP expression, is constructed in two steps: (i) CHO-K1 cells are co-transfected with pMG11 (PSV40-TtgA1-pA) and pSV2neo (Clontech, Cat. No. 6172-1) at a ratio of 20:1 and clonal selection results in the cell line CHO-TtgA. (ii) CHO-TtgA is co-transfected with pMG10 (PTtgR1-SEAP-pA) and pPur (Clontech, Cat. No. 6156-1) (ratio of 20:1) and the phloretin-responsive SEAP-producing double-transgenic cell line CHO-PEACE8 is chosen after clonal selection. […] Reversibility of phloretin-mediated SEAP production is assessed by cultivating CHO-PEACE8 (100,000 cells/mL) for 144 h while alternating phloretin concentrations from 0 to 50 μM every 48 h.

TtgA1 (TtgR-VP16) [4] = target: T1, TtgA1 (TtgR-VP16); assay: Time-delayed induction of SEAP production of CHO-PEACE8 in bioreactor; format: cell-based; set-up: expressed in transfected cells; host or cells: CHO-K1 (transient pMG11 or pMG13); also HEK-293, BHK-21, COS-7, HaCaT, HT-1080, NIH/3T3, primary human fibroblasts and keratinocytes; details: 1 L bioreactor, start doses 60, 80 or 100 μM phloretin
Description: 2×10^3 cells/mL CHO-PEACE8 are cultivated in a bioreactor containing 1 L culture medium supplemented with either 60, 80 or 100 μM phloretin and SEAP production is profiled for 211 h. Owing to a defined phloretin degradation profile in culture and a precise induction threshold of 40 μM phloretin, the onset of SEAP production can be programmed to occur at a very precise point in time by defining the cell density and the phloretin concentration at production start.
Since phloretin is a non-toxic fruit component, it is an ideal product gene inducer for biopharmaceutical manufacturing scenarios, which require precise timing or dosing of difficult-to-express protein pharmaceuticals. Also, since phloretin has a determined half-live of 70 h in mammalian cell culture systems any production culture can be programmed to start product gene expression at a predefined point in time as phloretin concentrations drop below a repressing threshold level. A 1 L BioWave® bioreactor is inoculated with 2×10^3 CHO-PEACE8 and different transgene-repressing phloretin doses of 60, 80 or 100 μM. While CHO-PEACE8 grows exponentially from the start of the bioprocess, SEAP production gradually increases once phloretin is degraded to non-repressive levels (40 μM; FIG. 8). […]

T1 sequence (Q9AIU0 whole entry, added parts left off): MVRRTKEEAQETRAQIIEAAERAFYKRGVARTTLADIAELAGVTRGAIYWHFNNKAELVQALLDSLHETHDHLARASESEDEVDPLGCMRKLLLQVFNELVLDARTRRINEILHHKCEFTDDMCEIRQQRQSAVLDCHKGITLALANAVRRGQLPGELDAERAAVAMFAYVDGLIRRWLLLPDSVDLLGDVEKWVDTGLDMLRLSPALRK

Compound: O=C(CCc1ccc(O)cc1)c1c(O)cc(O)cc1O [phloretin, 3-[4-hydroxyphenyl]-1-[2,4,6-trihydroxyphenyl]-1-propanone]
- functional half-live ([1]; cell-free culture medium, levels determined over 64 h): 70 h
- half-live ([1]; mammalian cell culture systems): 70 h
- SEAP expression (autoregulated circuit) (TtgA1 (TtgR-VP16) [2]): completely repressed
- Relative SEAP Production (%) (TtgA1 (TtgR-VP16) [3]; CHO-PEACE8 transiently transfected with macrolide-responsive control system, EM 2 μg/mL): 2.0 ± 1.2%
- Relative SEAP Production (%) (TtgA1 (TtgR-VP16) [3]; CHO-PEACE8 transiently transfected with tetracycline-responsive control system, Tet 2 μg/mL): 2.2 ± 0.2%
- induction threshold (non-repressive phloretin level) for SEAP production (TtgA1 (TtgR-VP16) [4]): 40 µM
